For 3 molecules, pest or weed control and inhibition in vivo results are on record in patent US11696913B2, “Prolonged ectoparasite-controlling agent for animal” (MITSUI CHEMICALS AGRO, INC., priority 2017, dated 2023).

In one assay the test system is Plutella xylostella. Kind of assay: Insecticidal testing against diamondback moth. Particulars: foliar, 144 h, concentration 100 ppm, cabbage leaf dip, third-stage larvae, after 6 days, read-out: pesticidal rate. Type of assay: in vivo. The source says: Insecticidal Testing Against Diamondback Moth (Plutella xylostella)
A further assay has as its system Dermacentor variabilis. In words: In vitro contact test with adult hard ticks (Dermacentor variabilis). Particulars: read-out: acaricidal activity; for pest or weed control at 0.2 µg/cm2, 0.2 µg/cm2: dose 0.2 μg/cm^2, 48 h; for pest or weed control at 1 µg/cm2, 1 µg/cm2: dose 1 μg/cm^2, 48 h. In a few lines: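 Acaricidal activity = % ticks dead or moribund after 48 h contact with acetone-deposited compound on vial walls (e.g., 900 ppm solution → 5 μg/cm^2). Ambient conditions for R. sanguineus, 21° C./85% rel. hum. for other species; heat challenge at 45-50° C. separated climbers from moribund ticks.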

The subject of assay [1] is Ctenocephalides felis. Kind of assay: Systemic treatment in-vivo test with cat flea on rats. Particulars: Ctenocephalides felis, ip, intraperitoneal injection, 10 mg/kg. The procedure, abridged:
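Rats dosed intraperitoneally per body weight in glycerol formal (up to 25% NMP for poorly soluble compounds). 30 D. variabilis nymphs released on treatment day and weekly, 30 C. felis fleas 24 h later; live attached engorged ticks counted at 48 h (±4 h), live fleas at 24 h, efficacy versus placebo group.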

In assay [2] the test system is Rhipicephalus (Boophilus) microplus. Kind of assay: In vitro injection test with Rhipicephalus (Boophilus) microplus (BOOPMI Inj). Particulars: 168 h, laid fertile eggs after 7 days, read-out: acaricidal activity; for pest or weed control at 32 ng: dose 0.032 μg/animal injected; for pest or weed control at 0.00016 mg: dose 0.16 μg/animal injected; for pest or weed control at 0.0008 mg: dose 0.8 μg/animal injected. The procedure, abridged: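 Five engorged adult females each get a 1 μl abdominal injection of compound dissolved and diluted in DMSO. Kept 7 days at 28° C./85% rel. hum.; percent activity rates egg laying and egg fertility (0% all fertile, 100% none laid or infertile).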

Assay [3] deals with Ctenocephalides felis. In words: In vitro contact test with fleas. Particulars: read-out: insecticidal activity; for pest or weed control at 0.04 µg/cm2, 0.04 µg/cm2: dose 0.04 μg/cm^2, dead or moribund fleas after 48 h; for pest or weed control at 0.2 µg/cm2, 0.2 µg/cm2: dose 0.2 μg/cm^2, dead or moribund fleas after 48 h; for pest or weed control at 1 µg/cm2, 1 µg/cm2: dose 1 μg/cm^2, dead or moribund fleas after 48 h. The procedure, abridged: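 Activity is the percentage of fleas dead or moribund at 48 h, judged by immobility or uncoordinated movement after tapping. Tubes were coated by evaporating acetone solutions (900 ppm gives 5 μg/cm^2), then held 5-10 adult fleas of both sexes at room temperature and ambient humidity.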

In assay [4] the test system is Ctenocephalides felis. In words: Ctenocephalides felis in-vitro feeding test with fleas (CTECFE oral). Particulars: 48 hours, read-out: insecticidal feeding activity; for pest or weed control at 0.032 ppm: dose 0.032 ppm in citrated cattle blood; for pest or weed control at 0.16 ppm: dose 0.16 ppm in citrated cattle blood; for pest or weed control at 0.8 ppm: dose 0.8 ppm in citrated cattle blood; for pest or weed control at 4 ppm: dose 4 ppm in citrated cattle blood. The procedure, abridged: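 Scored as percent fleas killed (0–100%) 48 hours after feeding began. Compound, dissolved in DMSO and diluted into citrated cattle blood, was offered via a parafilm membrane to roughly 20 adult male and female C. felis at about 37° C.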

The test system of another assay is Spodoptera litura. In words: Insecticidal testing against common cutworm. In kind it is in vivo. Particulars: foliar, 144 h, concentration 100 ppm, cabbage leaf dip, second-stage larvae, after 6 days, read-out: pesticidal rate. The source says:
Insecticidal Testing Against Common Cutworm (Spodoptera litura)

[5] abbreviates: SD 2, read-out: Geometric mean percent reduction in live flea (Ctenocephalides felis) counts compared to untreated control rats.
The mark [6] stands for this setting: SD 9, read-out: Geometric mean percent reduction in live flea (Ctenocephalides felis) counts compared to untreated control rats.
Setting [7] is: SD 16, read-out: Geometric mean percent reduction in live flea (Ctenocephalides felis) counts compared to untreated control rats.
The mark [8] stands for this setting: SD 23, read-out: Geometric mean percent reduction in live flea (Ctenocephalides felis) counts compared to untreated control rats.
Where [9] appears, read: SD 30, read-out: Geometric mean percent reduction in live flea (Ctenocephalides felis) counts compared to untreated control rats.

The structures appear in SMILES notation. Where two headings read alike, the source gives them in different places.

`CN(C(=O)c1ccc(F)cc1)c1cccc(C(=O)Nc2c(I)cc(C(F)(C(F)(F)F)C(F)(F)F)cc2OC(F)(F)F)c1F` [Compound 74]: the pest or weed control at 100 ppm in the assay with Plutella xylostella is at least 70%. Further, in the assay on Dermacentor variabilis, the pest or weed control at 0.2 µg/cm2, 0.2 µg/cm2 came to 90% and the pest or weed control at 1 µg/cm2, 1 µg/cm2 was 90%. In the assay on Ctenocephalides felis [1] (setting [5]), the inhibition in vivo at 10 mg/kg was 91%. Moreover, the inhibition in vivo at 10 mg/kg in the assay with Ctenocephalides felis [1] (setting [6]) was determined as 96%. Also, in the assay with Ctenocephalides felis [1] (setting [7]), the inhibition in vivo at 10 mg/kg is 86%. In addition, in the assay with Ctenocephalides felis [1] (setting [8]), the inhibition in vivo at 10 mg/kg turned out to be 89%. For the same molecule, the inhibition in vivo at 10 mg/kg in the assay with Ctenocephalides felis [1] (setting [9]) turned out to be 78%. In assay [2], the pest or weed control at 32 ng was determined as 100%, the pest or weed control at 0.00016 mg stood at 100% and the pest or weed control at 0.0008 mg worked out at 100%. In addition, in the assay with Ctenocephalides felis [3], the pest or weed control at 0.04 µg/cm2, 0.04 µg/cm2 was 95%; the pest or weed control at 0.2 µg/cm2, 0.2 µg/cm2 was 95%; the pest or weed control at 1 µg/cm2, 1 µg/cm2 worked out at 95%. Besides, in the assay on Ctenocephalides felis [4], the pest or weed control at 0.032 ppm was found to be 95%, the pest or weed control at 0.16 ppm came to 95%, the pest or weed control at 0.8 ppm stood at 95% and the pest or weed control at 4 ppm was 95%. Besides, the pest or weed control at 100 ppm in the assay with Spodoptera litura is at least 70%.
In the case of `CN(C(=O)c1ccc(C(F)(F)F)nc1)c1cccc(C(=O)Nc2c(I)cc(C(F)(C(F)(F)F)C(F)(F)F)cc2C(F)(F)F)c1F` [Compound 66, N-(2-fluoro-3-((2-iodo-4-(perfluoropropan-2-yl)-6-(trifluoromethyl)phenyl)carbamoyl)phenyl)-N-methyl-6-(trifluoromethyl)nicotinamide], the pest or weed control at 100 ppm with Plutella xylostella and in the assay with Spodoptera litura was at least 70% throughout. Also, the values for the pest or weed control at 1 µg/cm2, 1 µg/cm2 in the assay on Dermacentor variabilis and with Ctenocephalides felis [3] were 90% and 95%, respectively. In addition, the inhibition in vivo at 10 mg/kg amounted to 100% in the assay on Ctenocephalides felis [1] (setting [5]); 100% with Ctenocephalides felis [1] (setting [6]); 100% in the assay on Ctenocephalides felis [1] (setting [7]); 100% in the assay with Ctenocephalides felis [1] (setting [8]); 79% in the assay on Ctenocephalides felis [1] (setting [9]). For the same molecule, the pest or weed control at 0.00016 mg in assay [2] is 100%. In addition, the pest or weed control at 0.0008 mg in assay [2] stood at 100%. The pest or weed control at 0.2 µg/cm2, 0.2 µg/cm2 with Ctenocephalides felis [3] was determined as 95%. In addition, the pest or weed control at 0.16 ppm in the assay on Ctenocephalides felis [4] is 95%. In addition, the pest or weed control at 0.8 ppm with Ctenocephalides felis [4] stood at 95%. Further, the pest or weed control at 4 ppm in the assay with Ctenocephalides felis [4] came to 95%.
With `CN(C(=O)c1ccc(F)cc1)c1cccc(C(=O)Nc2c(I)cc(C(F)(C(F)(F)F)C(F)(F)C(F)(F)F)cc2OC(F)F)c1F` (stereo not shown) [Compound 103], the pest or weed control at 100 ppm in the assay on Plutella xylostella was at least 70%. In addition, the pest or weed control at 0.04 µg/cm2, 0.04 µg/cm2 in the assay with Dermacentor variabilis (dose 0.04 μg/cm^2, 48 h) is 90%. For the same molecule, in the assay on Dermacentor variabilis, the pest or weed control at 0.2 µg/cm2, 0.2 µg/cm2 is 90% and the pest or weed control at 1 µg/cm2, 1 µg/cm2 is 90%. For the same molecule, in the assay with Ctenocephalides felis [1] (setting [5]), the inhibition in vivo at 10 mg/kg came to 100%. In the assay with Ctenocephalides felis [1] (setting [6]), the inhibition in vivo at 10 mg/kg was determined as 92%. The inhibition in vivo at 10 mg/kg in the assay on Ctenocephalides felis [1] (setting [7]) stood at 70%. The inhibition in vivo at 10 mg/kg in the assay on Ctenocephalides felis [1] (setting [8]) was 20%. Also, the pest or weed control at 6.4 ng in assay [2] (dose 0.0064 μg/animal injected) turned out to be 100%. For the same molecule, in assay [2], the pest or weed control at 32 ng turned out to be 100%, the pest or weed control at 0.00016 mg worked out at 100% and the pest or weed control at 0.0008 mg is 100%. In the assay with Ctenocephalides felis [3], the pest or weed control at 0.04 µg/cm2, 0.04 µg/cm2 was 95%; the pest or weed control at 0.2 µg/cm2, 0.2 µg/cm2 came out at 95%; the pest or weed control at 1 µg/cm2, 1 µg/cm2 is 95%. In addition, in the assay on Ctenocephalides felis [4] (dose 0.0064 ppm in citrated cattle blood), the pest or weed control at 0.0064 ppm stood at 95%. In the assay with Ctenocephalides felis [4], the pest or weed control at 0.032 ppm came out at 95%, the pest or weed control at 0.16 ppm came out at 95%, the pest or weed control at 0.8 ppm came to 95% and the pest or weed control at 4 ppm was 95%. Besides, the pest or weed control at 100 ppm in the assay with Spodoptera litura is at least 70%.
